How the values were obtained:
Type in all cases: in vivo
[1] = test system: Permethrin Susceptible C. quinquefasciatus; test: Wind tunnel bioassay, adult mosquitoes, Example 1 (May 2021)
Description: (§1) In this bioassay, a wind tunnel bioassay was performed in the United States of America in May 2021. Culex quinquefasciatus that were known to be resistant and susceptible to permethrin were used in the studies. The following solutions were applied to adult C. quinquefasciatus mosquitoes: 1) 1.5% moxidectin; 2) 5% permethrin; 3) 2.5% pyrethrum; 4) a mixture of 5% permethrin and 1.5% moxidectin; and 5) a mixture of 2.5% pyrethrum and 1.5% moxidectin.
(§2) To determine if the mixtures provided unexpected results, the observed combined efficacy (“OCE”) was divided by the expected combined efficacy (“ECE”) wherein the expected ECE is calculated by the Abbott method: […]
(§3) wherein ECE is the expected combined efficacy and in which A and B are the percent control given by the single active ingredients. If the ratio between the OCE of the mixture and the ECE of the mixture is greater than 1, then greater than expected interactions are present in the mixture. (Gisi, Synergistic Interaction of Fungicides in Mixtures, The American Phytopathological Society, 86:11, 1273-1279, 1996). Percent mortality was recorded at 15 minutes (“Min”), 1 hour (“Hr”), 24 hours and 48 hours.

[2] = test system: Permethrin Resistant C. quinquefasciatus; test: as above
Description: as §1, §2, §3

[3] = test system: Permethrin Susceptible C. quinquefasciatus; test: Wind tunnel bioassay, adult mosquitoes, Example 2 (September 2021)
Description: as §1, with “September” for “May”, “0.5%” for “1.5%”, “0.5% pyrethrum; and” for “5% permethrin;”, “3)” for “3) 2.5% pyrethrum; 4)”, “0.5%” for “5% permethrin and 1.5% moxidectin; and 5) a mixture of 2.5%”
(§4) Percent mortality was recorded at 15 minutes (“Min”), 1 hour (“Hr”), 24 hours and 48 hours. OCE:ECE ratios were calculated as in Example 1, above.

[4] = test system: Permethrin Resistant C. quinquefasciatus; test: as above
Description: as §1, with “September” for “May”, “0.5%” for “1.5%”, “0.5% pyrethrum; and” for “5% permethrin;”, “3)” for “3) 2.5% pyrethrum; 4)”, “0.5%” for “5% permethrin and 1.5% moxidectin; and 5) a mixture of 2.5%”
as §4

CO/N=C1\C[C@]2(C[C@@H]3C[C@@H](C/C=C(\C)C[C@@H](C)/C=C/C=C4\CO[C@@H]5[C@H](O)C(C)=C[C@@H](C(=O)O3)[C@]45O)O2)O[C@H](/C(C)=C/C(C)C)[C@H]1C [1.5% Moxidectin, moxidectin]
% Mortality ([1]; 1 Hr): 67.5% | % Mortality ([1]; 15 Min): 53.75% | % Mortality ([1]; 24 Hr): 92.5% | % Mortality ([1]; 48 Hr): 92.5% | % Mortality ([2]; 1 Hr): 0% | % Mortality ([2]; 15 Min): 15% | % Mortality ([2]; 24 Hr): 68.75% | % Mortality ([2]; 48 Hr): 50%

CC1(C)C(C=C(Cl)Cl)C1C(=O)OCc1cccc(Oc2ccccc2)c1 (stereo not shown) [5% Permethrin, permethrin]
% Mortality ([1]; 1 Hr): 100% | % Mortality ([1]; 15 Min): 100% | % Mortality ([1]; 24 Hr): 100% | % Mortality ([1]; 48 Hr): 100% | control ([1]; span over 15 minutes to 48 hours): ~100% | % Mortality ([2]; 1 Hr): 81.25% | % Mortality ([2]; 15 Min): 35% | % Mortality ([2]; 24 Hr): 97.5% | % Mortality ([2]; 48 Hr): 96.25%

CO/N=C1\C[C@]2(C[C@@H]3C[C@@H](C/C=C(\C)C[C@@H](C)/C=C/C=C4\CO[C@@H]5[C@H](O)C(C)=C[C@@H](C(=O)O3)[C@]45O)O2)O[C@H](/C(C)=C/C(C)C)[C@H]1C [0.5% Moxidectin, moxidectin]
% Mortality ([3]; 1 Hr): 26.25% | % Mortality ([3]; 15 Min): 1.25% | % Mortality ([3]; 24 Hr): 95.00% | % Mortality ([3]; 48 Hr): 95.00% | % Mortality ([4]; 1 Hr): 0.00% | % Mortality ([4]; 15 Min): 0.00% | % Mortality ([4]; 24 Hr): 11.25% | % Mortality ([4]; 48 Hr): 8.75%

Source: patent US20230110595A1, “MIXTURE OF PYRETHROIDS AND MILBEMYCINS AND USES THEREOF” (Valent BioSciences LLC, priority 2021, published 2023)
